How the values were obtained:
[1] = molecular target: JAK2 (Homo sapiens (Human), UniProt O60674); experiment: JAK Caliper enzyme assay at 1 mM ATP (JAK2); assay type: biochemical; details: recombinant human kinase domain, Caliper mobility shift
Method: (§1) Compounds of the invention were evaluated by in vitro methods to determine their respective ability to inhibit the JAK kinases (TYK2, JAK1, JAK2, JAK3).
(§2) The human JAK inhibitory activity was determined by using a microfluidic assay to monitor phosphorylation of a synthetic peptide by the recombinant human kinase domain of each of the four members of the JAK family, JAK1, JAK2, JAK3 and TYK2. […] Each assay condition was optimized for enzyme concentration and room temperature incubation time to obtain a conversion rate of 20% to 30% phosphorylated peptide product. Reactions were terminated by the addition of stop buffer containing EDTA. Utilizing the LabChip 3000 mobility shift technology (Caliper Life Science), each assay reaction was sampled to determine the level of phosphorylation. This technology is separation-based, allowing direct detection of fluorescently labeled substrates and products. Separations are controlled by a combination of vacuum pressure and electric field strength optimized for each peptide substrate.
(§3) JAK Caliper Enzyme Assay at 1 mM ATP
(§4) Compounds were added to a 384-well plate. Reaction mixtures contained 10 mM HEPES, pH 7.4, 10 mM MgCl2, 0.01% BSA, 0.0005% Tween 20, 1 mM ATP and 1 μM peptide substrate. […] The assays were initiated by the addition of 20 nM JAK1, 1 nM JAK2, 1 nM JAK or 1 nM TYK2 enzyme and were incubated at room temperature for three hours for JAK1, 60 minutes for JAK2, 75 minutes for JAK3 or 135 minutes for TYK2. Enzyme concentrations and incubation times were optimized for each new enzyme preps and were modified slightly over time to ensure 20% to 30% phosphorylation. The assays were stopped with 15 μL of 180 mM HEPES, pH 7.4, 20 mM EDTA, and 0.2% Coating Reagent 3. The assay plates were placed on a Caliper Life Science LC3000 instrument, and each well was sampled using appropriate separation conditions to measure the unphosphorylated and phosphorylated peptide.
(§5) The data was collected using the HTS Well Analyzer software from Caliper Life Sciences. The data output for data analysis is the percent product converted calculated on peak height (Equation 1). % product converted=100*((product)/(product+substrate)) Equation 1: […]
(§6) The percent effect at each compound concentration was calculated based on the positive and negative control well contained within each assay plate (Equation 2). […] The negative control wells contained DMSO alone (at the same concentration as the compound wells) that was used to set the baseline activity in the assay (i.e., uninhibited JAK1, JAK2, JAK3 or TYK2). % effect=100*((sample well−negative control)/(positive control-negative control)) Equation 2: The percent effect was plotted against the compound concentration compound.

[2] = test system: IL-12 induced STAT4 phosphorylation (IL-12 signals through TYK2 and JAK2); experiment: Human Whole Blood IL-12 Induced STAT4 Phosphorylation Assay; assay type: cell-based; details: Lymphocyte, IL-12 5 ng/mL, pSTAT4 in lymphocytes by flow cytometry, read-out: HWB IL-12 IC50
Method: Selected compounds were assessed for their ability to inhibit IL-12 signaling in a human whole blood flow cytometry assay. IL-12 signals through TYK2 and JAK2. Human Whole Blood IL-12 Induced STAT4 Phosphorylation Assay
Test articles were prepared as 30 mM stocks in DMSO. An 11-point 2.5 dilution series was created in DMSO with a top concentration of 10 mM. Further dilution was done by adding 4 μL of the above test article solutions into 96 μL of PBS with a top concentration of 400 μM. […] Blood was warmed to 37° C. prior to use. Human whole blood was aliquoted ([…]) in 96-well, deep-well, V-bottom plates and treated with compounds at 11 different concentrations (0.2% DMSO final) at 37° C. for 60 minutes. This was followed by a challenge with IL-12 ([…]; final, 5 ng/mL) for 15 minutes. Samples were treated with warm 1× Lyse/Fix buffer ([…]) to terminate activation and further incubated at 37° C. for 20 minutes to lyse red blood cells. Plates were centrifuged at 300×g for 5 minutes, supernatant was aspirated, and cells were washed with […] of staining buffer (PBS containing 0.5% fetal bovine serum and 0.01% sodium azide). The washed cell pellets were resuspended with […] of pre-chilled 90% methanol, and incubated at 4° C. for 30 minutes. Plates were centrifuged at 300×g for 5 minutes, supernatant containing 90% methanol was aspirated, and cells were washed with […]/well of staining buffer. Cell pellets were resuspended in staining buffer containing anti-pSTAT4-AlexaFluor647 (1 to 150 dilution, […]), and incubated at room temperature in the dark overnight.
Samples were transferred to 96-well U-bottom plates and flow cytometric analysis was performed on a FACSCalibur or LSRFortessa equipped with a HTS plate loader (BD Biosciences). The lymphocyte population was gated for histogram analysis of pSTAT4. Background fluorescence was defined using unstimulated cells and a gate was placed at the foot of the peak to include ˜0.5% gated population. The histogram statistical analysis was performed using CellQuestO Pro version 5.2.1 (BD Biosciences) or FACSDiva version 6.2 (BD Biosciences) software. Relative fluorescence unit (RFU), which measures the level of phospho STAT4, was calculated by multiplying the percent positive population and its mean fluorescence. Data from 11 compound concentrations (singlicate at each concentration) was normalized as a percentage of control based on the formula: % of Control=100×(A−B)/(C−B) where A is the RFU from wells containing compound and IL-12, B is the RFU from wells without IL-12 and compound (minimum fluorescence) and C is the RFU from wells containing only IL-12 (maximum fluorescence). Inhibition curves and IC50 values were determined using the Prism version 5 software (GraphPad, La Jolla, Calif.).

[3] = molecular target: JAK3 (Homo sapiens (Human), UniProt P52333); experiment: JAK Caliper enzyme assay at 1 mM ATP (JAK3); assay type: biochemical; details: recombinant human kinase domain, Caliper mobility shift
Chain of JAK3 (P52333 822-1111): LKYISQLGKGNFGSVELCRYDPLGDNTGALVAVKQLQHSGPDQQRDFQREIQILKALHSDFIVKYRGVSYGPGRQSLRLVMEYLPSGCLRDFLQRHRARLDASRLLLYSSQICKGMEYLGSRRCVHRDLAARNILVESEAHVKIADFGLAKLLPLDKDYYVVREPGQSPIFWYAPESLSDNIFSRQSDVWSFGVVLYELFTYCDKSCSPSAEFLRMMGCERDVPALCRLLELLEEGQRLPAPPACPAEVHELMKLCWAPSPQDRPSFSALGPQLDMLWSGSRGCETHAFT
Method: as §1, §2, §3, §4, §5, §6

[4] = molecular target: JAK1 (Homo sapiens (Human), UniProt P23458); experiment: JAK Caliper enzyme assay at 1 mM ATP (JAK1); assay type: biochemical; details: recombinant human kinase domain, Caliper mobility shift
Chain of JAK1 (P23458 875-1153): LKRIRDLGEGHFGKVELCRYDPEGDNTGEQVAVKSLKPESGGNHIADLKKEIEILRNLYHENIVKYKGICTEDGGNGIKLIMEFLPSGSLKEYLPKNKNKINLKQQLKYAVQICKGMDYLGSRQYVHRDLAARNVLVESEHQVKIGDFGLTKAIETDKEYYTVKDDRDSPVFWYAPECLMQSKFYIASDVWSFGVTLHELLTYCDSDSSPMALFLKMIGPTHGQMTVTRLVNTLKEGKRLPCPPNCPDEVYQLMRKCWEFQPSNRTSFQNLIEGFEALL
Method: Compounds of the invention were evaluated by in vitro methods to determine their respective ability to inhibit the JAK kinases (TYK2, JAK1, JAK2, JAK3). The human JAK inhibitory activity was determined by using a microfluidic assay to monitor phosphorylation of a synthetic peptide by the recombinant human kinase domain of each of the four members of the JAK family, JAK1, JAK2, JAK3 and TYK2. […] Reactions were terminated by the addition of stop buffer containing EDTA. Utilizing the LabChip 3000 mobility shift technology (Caliper Life Science), each assay reaction was sampled to determine the level of phosphorylation. This technology is separation-based, allowing direct detection of fluorescently labeled substrates and products. Separations are controlled by a combination of vacuum pressure and electric field strength optimized for each peptide substrate. […] Compounds were added to a 384-well plate. […] Enzyme concentrations and incubation times were optimized for each new enzyme preps and were modified slightly over time to ensure 20% to 30% phosphorylation. […] The assay plates were placed on a Caliper Life Science LC3000 instrument, and each well was sampled using appropriate separation conditions to measure the unphosphorylated and phosphorylated peptide. The data was collected using the HTS Well Analyzer software from Caliper Life Sciences. […] The percent effect at each compound concentration was calculated based on the positive and negative control well contained within each assay plate (Equation 2). […] The percent effect was plotted against the compound concentration compound. […] Where max is the maximum asymptote (complete inhibition), min is the minimum asymptote (no inhibition) and s is the slope factor.

[5] = molecular target: TYK2 (Homo sapiens (Human), UniProt P29597); experiment: JAK Caliper enzyme assay at 1 mM ATP (TYK2); assay type: biochemical; details: recombinant human kinase domain, Caliper mobility shift
Chain of TYK2 (P29597 897-1176): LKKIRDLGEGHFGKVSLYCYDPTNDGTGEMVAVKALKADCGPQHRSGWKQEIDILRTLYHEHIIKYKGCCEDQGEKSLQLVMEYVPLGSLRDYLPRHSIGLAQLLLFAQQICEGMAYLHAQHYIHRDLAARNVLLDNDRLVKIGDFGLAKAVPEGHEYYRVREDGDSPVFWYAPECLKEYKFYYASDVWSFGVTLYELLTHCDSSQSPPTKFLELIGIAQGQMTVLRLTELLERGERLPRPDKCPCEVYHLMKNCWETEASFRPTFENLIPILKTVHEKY
Method: as §1, §2, §3, §4, §5, §6

Chain of JAK2 (O60674 849-1124): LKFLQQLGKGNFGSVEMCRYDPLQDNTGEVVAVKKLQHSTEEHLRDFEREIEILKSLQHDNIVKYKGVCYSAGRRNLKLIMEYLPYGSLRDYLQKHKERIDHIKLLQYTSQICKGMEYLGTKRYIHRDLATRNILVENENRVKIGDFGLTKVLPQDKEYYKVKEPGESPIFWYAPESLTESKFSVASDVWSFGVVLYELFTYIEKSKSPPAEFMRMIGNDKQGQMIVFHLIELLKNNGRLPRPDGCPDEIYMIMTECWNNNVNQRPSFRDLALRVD

| Structure (SMILES) | IC50 [1] [µM] | IC50 [2] [µM] | IC50 [3] [µM] | IC50 [4] [µM] | IC50 [5] [µM] |
| --- | --- | --- | --- | --- | --- |
| N#CC[C@]1(n2cc(-c3nc(-c4cc(CO)on4)cn4nccc34)cn2)C[C@@H](C#N)C1 [Example 1, (1s,3s)-3-(Cyanomethyl)-3-(4-(6-(5-(hydroxymethyl)isoxazol-3-yl)pyrazolo[1,5-a]pyrazin-4-yl)-1H-pyrazol-1-yl)cyclobutane-1-carbonitrile] | 0.04 | 0.162 | > 9.79 |  |  |
| Cn1cc(-c2cn3nccc3c(-c3cnn(C4(CC#N)CN(CC#N)C4)c3)n2)cn1 [Example 7, 2,2′-(3-(4-(6-(1-Methyl-1H-pyrazol-4-yl)pyrazolo[1,5-a]pyrazin-4-yl)-1H-pyrazol-1-yl)azetidine-1,3-diyl)diacetonitrile] | 0.037 | 0.041 | 6.68 | 0.25 | 0.007 |
| Cn1cc(-c2cn3nccc3c(-c3cnn([C@]4(CC#N)C[C@H](C#N)C4)c3)n2)cn1 [Example 19, (1s,3s)-3-(Cyanomethyl)-3-(4-(6-(1-methyl-1H-pyrazol-4-yl)pyrazolo[1,5-a]pyrazin-4-yl)-1H-pyrazol-1-yl)cyclobutane-1-carbonitrile] |  | 0.028 |  |  |  |
| Cn1cc(-c2cn3nccc3c(-c3cnn([C@]4(CC#N)C[C@@H](C#N)C4)c3)n2)cn1 [Example 20, (1r,3r)-3-(Cyanomethyl)-3-(4-(6-(1-methyl-1H-pyrazol-4-yl)pyrazolo[1,5-a]pyrazin-4-yl)-1H-pyrazol-1-yl)cyclobutane-1-carbonitrile] |  | 0.05 |  |  |  |
| Cc1cc(-c2cn3nccc3c(-c3cnn([C@]4(CC#N)C[C@@H](C#N)C4)c3)n2)n[nH]1 [Example 26, (1r,3r)-3-(Cyanomethyl)-3-(4-(6-(5-methyl-1H-pyrazol-3-yl)pyrazolo[1,5-a]pyrazin-4-yl)-1H-pyrazol-1-yl)cyclobutane-1-carbonitrile] | 0.158 |  | > 10 | 0.713 | 0.021 |
| CO[C@H]1C[C@](CC#N)(n2cc(-c3nc(-c4cc(CO)[nH]n4)cn4nccc34)cn2)C1 [Example 28, 2-((1r,3s)-1-(4-(6-(5-(Hydroxymethyl)-1H-pyrazol-3-yl)pyrazolo[1,5-a]pyrazin-4-yl)-1H-pyrazol-1-yl)-3-methoxycyclobutyl)acetonitrile] | 0.249 |  | > 10 | 1.36 | 0.027 |
| N#CC[C@]1(n2cc(-c3nc(-c4cc(C(N)=O)no4)cn4nccc34)cn2)C[C@H](C#N)C1 [Example 29, 5-(4-(1-((1r,3r)-3-Cyano-1-(cyanomethyl)cyclobutyl)-1H-pyrazol-4-yl)pyrazolo[1,5-a]pyrazin-6-yl)isoxazole-3-carboxamide] | 3.04 |  | > 10 | 3.93 | 0.352 |
| CO[C@H]1C[C@](CC#N)(n2cc(-c3nc(-c4cn(C)nc4CO)cn4nccc34)cn2)C1 [Example 31, 2-((1r,3s)-1-(4-(6-(3-(Hydroxymethyl)-1-methyl-1H-pyrazol-4-yl)pyrazolo[1,5-a]pyrazin-4-yl)-1H-pyrazol-1-yl)-3-methoxycyclobutyl)acetonitrile] | 0.324 |  | > 10 | > 9.86 | 0.038 |

Results, then the compound that gave them:

| IC50 [1] [µM] | IC50 [2] [µM] | IC50 [3] [µM] | IC50 [4] [µM] | IC50 [5] [µM] | Structure (SMILES) |
| --- | --- | --- | --- | --- | --- |
| 0.444 |  | > 10 | 8.72 | 0.052 | Cn1cc(-c2cn3nccc3c(-c3cnn([C@]4(CC#N)C[C@@H](C#N)C4)c3)n2)nn1 [Example 33, (1r,3r)-3-(Cyanomethyl)-3-(4-(6-(1-methyl-1H-1,2,3-triazol-4-yl)pyrazolo[1,5-a]pyrazin-4-yl)-1H-pyrazol-1-yl)cyclobutane-1-carbonitrile] |
| 0.019 |  | 3.26 | 0.096 | 0.011 | Cn1cc(-c2cn3nccc3c(-c3cnn([C@]4(CC#N)C[C@](C)(C#N)C4)c3)n2)cn1 [Example 34, (1s,3s)-3-(Cyanomethyl)-1-methyl-3-(4-(6-(1-methyl-1H-pyrazol-4-yl)pyrazolo[1,5-a]pyrazin-4-yl)-1H-pyrazol-1-yl)cyclobutane-1-carbonitrile] |
| 0.268 |  | > 10 | 1.92 | 0.136 | Cn1cc(-c2cn3nccc3c(-c3cnn([C@]4(CC#N)C[C@@](C)(C#N)C4)c3)n2)cn1 [Example 35, (1r,3r)-3-(Cyanomethyl)-1-methyl-3-(4-(6-(1-methyl-1H-pyrazol-4-yl)pyrazolo[1,5-a]pyrazin-4-yl)-1H-pyrazol-1-yl)cyclobutane-1-carbonitrile] |
| 0.755 |  | > 10 | 3.52 | 1.6 | Cc1cc2c(-c3cnn([C@]4(CC#N)C[C@@H](C#N)C4)c3)nc(-c3cnn(C)c3)cn2n1 [Example 36, (1r,3r)-3-(Cyanomethyl)-3-(4-(2-methyl-6-(1-methyl-1H-pyrazol-4-yl)pyrazolo[1,5-a]pyrazin-4-yl)-1H-pyrazol-1-yl)cyclobutane-1-carbonitrile] |
| 0.166 |  | > 10 | 3.49 | 0.032 | Cn1cc(-c2cn3nccc3c(-c3cnn([C@]4(CC#N)C[C@@H](C#N)C4)c3)n2)c(=O)[nH]1 [Example 37, (1r,3r)-3-(Cyanomethyl)-3-(4-(6-(1-methyl-3-oxo-2,3-dihydro-1H-pyrazol-4-yl)pyrazolo[1,5-a]pyrazin-4-yl)-1H-pyrazol-1-yl)cyclobutane-1-carbonitrile] |
